One block for each molecule: values may come before it.
Key:
[1] = Stable isotope tracer ultrafiltration assay (SITUA) of rapamycin drug release from ABI-009 lots; type: physicochemical; conditions: 10 minutes incubation, 4.5% human serum albumin, 29° C.
Procedure: A study was also undertaken to analyze rapamycin drug release from 12 lots of ABI-009 (Lots #1-10 and Lots 14-15) using a stable isotope tracer ultrafiltration assay (SITUA) (see Skoczen et al., Stable Isotope Method to Measure Drug Release from Nanomedicines, J. Control Release, 220(A):169-174 (2015). Drug release was examined at 10 μg/ml and 500 μg/ml of rapamycin following 10 minutes of incubation. Briefly, stable, isotope-labeled rapamycin was spiked into 4.5% human serum albumin (25% Albutein HSA diluted in 0.9% saline). MeOH-solvent rapamycin (as a control) or fresh reconstituted samples of each lot at 10 μg/ml or 500 μg/ml were added. After 10 minutes of equilibration at 29° C., a portion of the sample is taken and filtered using Vivacon®) 10 kDa MWCO centrifuge devices prewarmed to 29° C. The sample and the ultrafiltrate are analyzed by LC-MS to determine the concentrations of normal rapamycin and isotope-labelled rapamycin. The ultrafilterable fraction of isotope-labeled rapamycin represents a measurement of free unbound fraction.
The encapsulated and unencapsulated nanoparticle fractions can also be calculated.

malignant PEComa = test: Case: malignant PEComa patient (TSC1 mutation) who failed everolimus, then treated with nab-sirolimus; type: in vivo, human
Procedure: A post-menopausal person with family history of lymphoma in their parent and breast, ovarian cancer in a paternal aunt, presented with abnormal uterine bleeding in July 2018. […] Following this, a laparoscopic hysterectomy with bilateral salpingo-oophorectomy was performed and pathology was consistent with malignant PEComa which stained positive for smooth muscle actin, HMB-45 and Melan-A (59 mitoses per 10 hpf).
The primary tumor was locally advanced, and no metastatic disease was present at the time of diagnosis, adjuvant chemotherapy was not administered, and the patient was monitored with serial scans.
Upon disease progression, the patient was started on 10 mg everolimus orally daily.
After failure of treatment with everolimus, the patient was treated with nab-sirolimus at 100 mg/m^2 on day 1 and day 8 of a 21 day cycle started in July of 2019. They also received stereotactic radiosurgery to the metastatic lesion in their brain.

[2] = tested on: tumors with TSC1 or TSC2 mutations; conditions: 2/30 patients; cited from earlier work
[3] = in vivo; cited from earlier work
ABCB1/ABCG2 = conditions: cited from earlier work
[4] = tested on: non-PEComa cancer with TSC1, TSC2 or mTOR mutation; test: ABI-009 Expanded Access Protocol: single-agent ABI-009 in non-PEComa patients with relevant mTOR pathway mutations; type: in vivo, human; set-up: key: CR: disappearance of all target lesions; PR: at least a 30% decrease in the sum of the longest diameters (SLD) of target lesions; SD: neither sufficient shrinkage of target lesions to qualify for PR, nor sufficient increase to qualify for PD; PD: at least a 20% increase in the SLD of target lesions; conditions: Patient #4, metastatic epithelial ovarian carcinoma
From the text: Seven patients were enrolled under ABI-009 Expanded Access Protocol. See Table 14 below for information about their tumor type, relevant mutation, failed prior therapy and response to ABI-009. ABI-009 was produced according to Example 7.

Avg. Release (%) ([1]; 10 μg/ml rapamycin): 97.2%
Avg. Release (%) ([1]; 500 μg/ml rapamycin): 18.3%
SMILES: CO[C@H]1C[C@@H]2CC[C@@H](C)[C@@](O)(O2)C(=O)C(=O)N2CCCC[C@H]2C(=O)O[C@H]([C@H](C)C[C@@H]2CC[C@@H](O)[C@H](OC)C2)CC(=O)[C@H](C)/C=C(\C)[C@@H](O)[C@@H](OC)C(=O)[C@H](C)C[C@H](C)/C=C/C=C/C=C/1C [Free rapamycin]

SMILES: CO[C@H]1C[C@@H]2CC[C@@H](C)[C@@](O)(O2)C(=O)C(=O)N2CCCC[C@H]2C(=O)O[C@H]([C@H](C)C[C@@H]2CC[C@@H](OCCO)[C@H](OC)C2)CC(=O)[C@H](C)/C=C(\C)[C@@H](O)[C@@H](OC)C(=O)[C@H](C)C[C@H](C)/C=C/C=C/C=C/1C [everolimus]
CT scan result 2 months after starting everolimus (malignant PEComa; everolimus 10 mg orally daily, reduced to 5 mg): progressive disease
adverse event related to everolimus (malignant PEComa; three weeks after beginning 10 mg orally daily): hospitalized due to fever and headache
responses in patients with TSC1 or TSC2 mutations [2]: 7%

SMILES: COc1ccc(COc2cc3oc(=O)c4cc(C(C)O)ccc4c3cc2OC)cc1 (centres unmarked) [Palomid 529]
brain penetration [3]: good brain penetration
affinity for ABCB1/ABCG2 (ABCB1/ABCG2): lacks affinity

SMILES: CC(C)n1nc(-c2ccc3oc(N)nc3c2)c2c(N)ncnc21 [MLN0128]
best response on prior MLN0128 [4]: SD

Reference: patent US20230000844A1, “BIOMARKERS FOR NANOPARTICLE COMPOSITIONS” (Abraxis BioScience, LLC, priority 2019, published 2023)
